Data from patent publication US12404242B2, “Compositions and methods for making and using small molecules in the treatment of cancer” (Reglagene, Inc., priority 2021, dated 2025).
Values after ≈ are worked out from the molar mass of the structure shown. Where two headings read alike, the source gives them in different places.

Key:
[1] = test system: LN18 cells; assay: Cell viability (AlamarBlue), LN18 glioma cells; assay type: cell-based; conditions: Homo sapiens, LN-18, 72 hours of treatment
Description: (§1) In another exemplary method, half maximal effective concentration (EC50) was determined for some compounds and their isomers as disclosed herein in a variety of human cancer cell lines. In brief, cells from two prostate cancer cell lines (LNCaP, 22RV1), one glioblastoma cell line (U87), one breast cancer cell line (MCF7), a glioma cell line (LN18), a normal prostate cell line (RWPE1), and a glioblastoma cell line (T98G) were plated in a multi-well plate. After 24 hours, one of the compounds herein was added to the well at increasing concentrations. After 72 hours of treatment, cell viability was assessed using AlamrBlue® (Invitrogen) and fluorescence was read using the CLARIOstar Plus Multilabel Plate Reader (BMG Labtech). Samples were normalized to no treatment controls. EC50 values were determined using GraphPad Prism.

[2] = Kinetic solubility in aqueous PBS buffer (HPLC-MS); assay type: physicochemical; conditions: kinetic from dmso stock, DMSO stock mixed with aqueous PBS buffer, filtered, read-out: Kinetic Solubility
Outline: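 A concentrated DMSO stock was mixed with aqueous PBS buffer and filtered. The filtrate was quantified against an HPLC-MS calibration curve.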

[3] = test system: tubulin; assay: Tubulin polymerization assay; assay type: biochemical; conditions: 5 uM (FIG. 41A, 41C) or 1 uM (FIG. 41B)
Description: FIG. 41A-41C represent exemplary experiments illustrating inhibition of tubulin polymerization. FIG. 41A illustrates effects of compounds 19, 73, 86, 93 and 94 at 5 uM concentration. FIG. 41B illustrates effects of compounds 93, 94, 95 and 96 at 1 uM concentration.
FIG. 41C illustrates effects of compounds 73, 86, 87 and 88 at 5 uM concentration in accordance with certain embodiments of the present disclosure. Colchicine and vincristine are positive controls.
FIG. 42A-42B represent exemplary experiments illustrating inhibition of tubulin polymerization. FIG. 42A illustrates effects of compound 19 at 0.3, 1, 3 and 6 uM concentrations.
FIG. 42B illustrates effects of compound 73 at […] concentration in accordance with certain embodiments of the present disclosure. Colchicine and nocodazole are positive controls.
In another exemplary method, the effect of the compounds herein on tubulin polymerization was determined. FIG. 41A illustrates effects of compounds 19, 73, 86, 93 and 94 at 5 uM concentration, FIG. 41B illustrates effects of compounds 93, 94, 95 and 96 at 1 uM concentration, or FIG. 41C illustrates effects of compounds 87 and 88 at 5 uM concentration in accordance with certain embodiments of the present disclosure. Colchicine and vincristine are positive controls.
The dose dependent effect of compounds 19 and 73 on tubulin polymerization was also determined. FIG. 42A illustrates effects of compound 19 at 0.3, 1, 3 and 6 uM concentrations, and FIG. 42B illustrates effects of compound 73 at 0.1, 0.3, 1, 3 and 5 uM concentration in accordance with certain embodiments of the present disclosure. Colchicine and nocodazole are positive controls.

[4] = test system: colchicine-site of tubulin; assay: Fluorescence-based colchicine competitive binding assay; conditions: 50 uM (FIG. 43)
Description: FIG. 43 represent fluorescence-based colchicine competitive binding assay with compounds 19, 73 and 93 at 50 uM concentration in accordance with certain embodiments of the present disclosure. Nocodazole (NOC) is positive control.
(§2) Microtubule-targeting agents that bind at the colchicine-site of tubulin are of interest in antitumoral therapy due to their action as anti-mitotics. […] Nocodazole was used as a positive control. […] Colchicine (COL) and nocodazole (NOC) are positive controls while vincristine (VINC) is negative control.

[5] = test system: colchicine binding site (tubulin) in MCF7 cell lines; assay: N,N'-ethylene-bis(iodoacetamide) (EBI) competition assay in MCF7 cells; assay type: cell-based; conditions: MCF7 cell lines (FIG. 44)
Excerpt: FIG. 44 represent N,N′-ethylene-bis(iodoacetamide) (EBI) competition assay with compounds 19, 73 and 93 in MCF7 cell lines showing binding of compounds in colchicine binding site in accordance with certain embodiments of the present disclosure. Colchicine (COL) and nocodazole (NOC) are positive controls while vincristine (VINC) is negative control.
as §2

[6] = test system: LN18 glioblastoma cancer cells; assay: Combination with Temozolomide, Bliss synergy in LN18 cells; assay type: cell-based; conditions: Temozolomide 0 to 1000 uM, compound 0.625 to 10 uM
Description: Synergy was calculated with the Bliss independence model. Compounds were combined at concentrations of 0 to 1000 uM for Temozolomide and 0.625 to 10 uM for compounds 19 and 59.

[7] = test system: U87 glioblastoma cells; assay: Combination with ionizing radiation in U87 cells; assay type: cell-based; conditions: 2 Gy ionizing radiation and 0.04-0.3 uM compound; versus ionizing radiation alone
[8] = test system: tubulin; assay: Tubulin polymerization assay; assay type: biochemical; conditions: compound 19 at 0.3, 1, 3 and 6 uM; compound 73 at 0.1, 0.3, 1, 3 and 5 uM
[9] = test system: 22RV1 cells; assay: Cell viability (AlamarBlue), 22RV1 prostate cancer cells; assay type: cell-based, human; conditions: Homo sapiens, 22Rv1, 72 h, 72 hours of treatment
Outline: (§3)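 EC50 from AlamarBlue fluorescence after 72 h compound exposure at rising concentrations; readings normalized to no-treatment wells. Compound added 24 h post-plating.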

[10] = test system: U87 cells; assay: Cell viability (AlamarBlue), U87 glioblastoma cells; assay type: cell-based, human; conditions: Homo sapiens, U-87 MG, 72 h, 72 hours of treatment
Outline: as §3

[11] = test system: 22Rv1 prostate cancer cells; assay: Combination with Rabusertib, Bliss synergy in 22Rv1 cells; assay type: cell-based; conditions: Rabusertib 0 to 30 uM, compound 0.625 to 5 uM
Description: Synergy was calculated with the Bliss independence model. Compounds were combined at concentrations of 0 to 30 uM for Rabusertib and 0.625 to 5 uM for compounds 73 and 76.

[12] = test system: T98G cells; assay: Cell viability (AlamarBlue), T98G glioblastoma cells; assay type: cell-based; conditions: Homo sapiens, 72 hours of treatment
Description: as §1

[13] = Plasma and brain levels in healthy mouse; assay type: in vivo; conditions: oral dose
Excerpt: FIG. 53A-53B represent an exemplary experiment illustrating concentration of Compound 98 in plasma after oral dose (FIG. 53A); FIG. 53B represents levels of Compound 98 in plasma and brain tissue after administration to a rodent model in accordance with certain embodiments of the present disclosure.
FIG. 53A illustrates concentrations of Compound 98 in healthy mouse plasma over time. FIG. 53B and Table 9 illustrates concentrations of Compound 98 in healthy mouse plasma and brain at 0.5, 1 and 2 hrs.

[14] = brain, read-out: Healthy Brain concentration
[15] = plasma, read-out: Plasma concentration

EC50 [1] | solubility kinetic [2] | EC50 [9] | EC50 [10] | EC50 [12] | concentration at 0.5 h [13, 14] | concentration at 1 h [13, 14] | concentration at 2 h [13, 14] | concentration at 0.5 h [13, 15] | concentration at 1 h [13, 15] | concentration at 2 h [13, 15] | SMILES | effect on tubulin polymerization [3] | colchicine competitive binding assay result [4] | EBI competition assay result [5] | Bliss Synergy value, combination with Temozolomide ([6]; LN18 cells, Bliss independence model) | effect of combination with Temozolomide on cancer cell viability [6] | cancer cell viability with ionizing radiation plus compound [7] | dose dependent effect on tubulin polymerization [8] | Bliss Synergy value, combination with Rabusertib ([11]; 22Rv1 cells, Bliss independence model) | effect of combination with Rabusertib on cancer cell viability [11]
0.83 µM | 5.68 µM (≈ 2.21 µg/mL) | – | – | – | – | – | – | – | – | – | COC1CC(C(=O)NC(=O)Nc2ccc(Oc3ccc(Cl)cn3)c(C)c2)C1 (stereo not shown) [Compound 19, N-((4-((5-chloropyridin-2-yl)oxy)-3-methylphenyl)carbamoyl)-3-methoxycyclobutane-1-carboxamide] | significantly inhibit tubulin polymerization | significantly inhibit microtubule assembly | inhibitors of EBI binding | 29.5 | synergistic decrease in cancer cell viability | reduced cancer cell viability relative to cells treated with ionizing radiation alone | significantly inhibit tubulin polymerization in a dose dependent manner | – | –
– | – | 0.068 µM | 0.12 µM | – | – | – | – | – | – | – | COC1CC(C(=O)NC(=O)Nc2cc(C)c(Oc3ncc(Cl)cn3)c(F)c2)C1 (stereo not shown) [Compound 73, N-((4-((5-chloropyrimidin-2-yl)oxy)-3-fluoro-5-methylphenyl)carbamoyl)-3-methoxycyclobutane carboxamide] | significantly inhibit tubulin polymerization | significantly inhibit microtubule assembly | inhibitors of EBI binding | – | – | – | significantly inhibit tubulin polymerization in a dose dependent manner | 20.7 | synergistic decrease in cancer cell viability
– | 8.9 µM (≈ 3.22 µg/mL) | – | 0.03 µM | – | – | – | – | – | – | – | COC1CC(C(=O)NC(=O)Nc2ccc(C)c(Oc3nccs3)c2)C1 (stereo not shown) [Compound 93, 3-methoxy-N-((4-methyl-3-(thiazol-2-yloxy)phenyl)carbamoyl)cyclobutane-1-carboxamide] | significantly inhibit tubulin polymerization | significantly inhibit microtubule assembly | inhibitors of EBI binding | – | – | – | – | – | –
0.07 µM | – | – | 0.02 µM | 0.0189 µM | 230 ng/g | 234 ng/g | 257 ng/g | 424 ng/mL | 490 ng/mL | 399 ng/mL | COC12CC(C(=O)NC(=O)Nc3ccc(C)c(Oc4ccccn4)c3)(C1)C2 [Compound 98, 3-methoxy-N-((4-methyl-3-(pyridin-2-yloxy)phenyl)carbamoyl)bicyclo[1.1.1]pentane-1-carboxamide] | – | – | – | – | – | – | – | – | –
